The values that follow are results of earlier work, collected in patent US20240265995A1, “System of Predicting Sensitivity of Klebsiella against Cefoxitin and Method” (priority 2023, published 2024).

In the data set the test system is carbapenem resistant Klebsiella pneumoniae. The following applies: carbapenem resistant Klebsiella pneumoniae isolated from 2014 to 2017 (252/403).

Turning to `C[C@@H](O)[C@H]1C(=O)N2C(C(=O)O)=C(S[C@@H]3CN[C@H](C(=O)N(C)C)C3)[C@H](C)[C@H]12` [meropenem], the “resistance rate against meropenem” value is listed as 62.5%.
